Measured values published in US9062002B2, “Substituted pyridine derivatives as FabI inhibitors” (Aurigene Discovery Technologies Limited, priority 2011, dated 2015).
Converted amounts (≈) assume the structure as drawn.

What was measured:
MSSA = assay: MIC by broth microdilution method; format: cell-based; conditions: Staphylococcus aureus, MRSA / MSSA; MSSA, broth microdilution; read-out: MIC Vs MRSA (μg/ml) MSSA
MRSA = assay: MIC by broth microdilution method; format: cell-based; conditions: Staphylococcus aureus; MRSA, broth microdilution; read-out: MIC Vs MRSA (μg/ml) MRSA
MRSE = assay: MIC by broth microdilution method; format: cell-based; conditions: Staphylococcus epidermidis, MRSA / MRSE; MRSE, broth microdilution; read-out: MIC Vs MRSA (μg/ml) MRSE
[1] = Metabolic stability study in mouse liver microsomes; format: in vitro ADME; conditions: 1 μM, 37° C.
Experimental: The above selected compounds have protected mice from infection at ED50 doses. Metabolic Stability Study: In vitro metabolic stability of the compounds was done in mouse liver microsomes prepared in house as per standard protocol. Compounds were tested at 1 μM concentration. Compounds were incubated for 15 and 60 minutes at 37° C. with 100 rpm in shaker bath. After the incubation samples were analysed by LC/MS (API-4000). Respective control (Propranalol) was included in the study.

Fab I = conditions: 1 μM compound

| Compound | MIC (MSSA) [µg/mL] | MIC (MRSA) [µg/mL] | MIC (MRSE) [µg/mL] | Percentage of compound remained after 15 min [1] [%] | Percentage of compound remained after 60 min [1] [%] | FAB-I inhibition %@1 μM (Fab I) [%] |
| --- | --- | --- | --- | --- | --- | --- |
| O=C1CCNc2cc(/C=C/C(=O)N3CC=C(Cc4cccs4)CC3)cnc2N1 [Compound 91, (E)-8-(3-oxo-3-(4-(thiophen-2-ylmethyl)-5,6-dihydropyridin-1(2H)-yl)prop-1-en-1-yl)-2,3-dihydro-1H-pyrido[2,3-b][1,4]diazepin-4(5H)-one] | 0.25 (≈ 0.634 µM) | 0.5 (≈ 1.27 µM) | 0.5 (≈ 1.27 µM) | 81.3 | 79.3 | 93 |
| CN1CC(=O)Nc2ncc(/C=C/C(=O)N3CC=C(Cc4cccs4)CC3)cc2C1 [Compound 93, (E)-4-methyl-7-(3-oxo-3-(4-(thiophen-2-ylmethyl)-5,6-dihydropyridin-1(2H)-yl)prop-1-en-1-yl)-4,5-dihydro-1H-pyrido[2,3-e][1,4]diazepin-2(3H)-one] | 0.5 (≈ 1.22 µM) | 0.5 (≈ 1.22 µM) | 1 (≈ 2.45 µM) | 16.1 | 1.1 | 93 |
